This is an account of results in ChEMBL document CHEMBL1123386, “Substituted-vinyl hydroxytriarylethylenes, 1-[4-[2-(diethylamino) ethoxy]phenyl]-1-(4-hydroxyphenyl)-2-phenylethylenes: synthesis and effects on MCF 7 breast cancer cell proliferation” (J Med Chem, 1986).

Each structure is given as a SMILES string.

What is called Kd is the equilibrium constant for the complex coming apart. Read a low Kd as a tighter complex.

The test system of the assay is MCF7. Description: Compound was tested for binding affinity against nuclear ER in MCF-7 cell extracts. The assay is classed as functional, cell-based, Homo sapiens.
`CCN(CC)CCOc1ccc(/C(=C(\c2ccccc2)[N+](=O)[O-])c2ccc(O)cc2)cc1` yielded a Kd of 0.56 nM. Molecule `CCN(CC)CCOc1ccc(/C(=C(/C#N)c2ccccc2)c2ccc(O)cc2)cc1` gave a Kd of 1.11 nM. For `CCN(CC)CCOc1ccc(/C(=C(/Cl)c2ccccc2)c2ccc(O)cc2)cc1` [4-OH-ENCLOMIPHENE] the value was 0.11 nM. In the case of `CCN(CC)CCOc1ccc(/C(=C(/Br)c2ccccc2)c2ccc(O)cc2)cc1` it was 0.36 nM; in that of `CCN(CC)CCOc1ccc(/C(=C\c2ccccc2)c2ccc(O)cc2)cc1`, 1.11 nM; in that of `CC/C(=C(\c1ccc(O)cc1)c1ccc(OCCN(CC)CC)cc1)c1ccccc1`, 0.29 nM.
